Target: αvβ3 human receptor (vitronectin receptor) (Homo sapiens, UniProt P05106+P06756)
Assay: Competition binding test: displacement of the vitronectin/vitronectin receptor (αvβ3) bond
Details: human vitronectin coated at 2 μg/ml, 3 hours incubation at ambient temperature, 4B12-HRP antibody detection, OD 450 nm, read-out: Competition binding test Vn/VnR (αvβ3) IC50
Experimental: 1—Study by the Products of the Invention of the Bond Displacement: Vitronectin/Vitronectin Receptor (αvβ3) Protocol 96 well MaxiSorp plates are coated overnight at 4° C., with 100 μl of human vitronectin (cf Yatohgo et al. Cell., Structure and fraction 13: 281-292 (1988) at 2 μg/ml, (dilution in coating buffer).
The following day, the wells are emptied and the ligands (vitronectin) are then fixed (see fixation buffer) for 1 hour at ambient temperature under gentle agitation. The wells are washed six times (see washing buffer), then per well and in this order the following are added:
40 μl of incubation buffer, 10 μl of the diluted product to be tested, (the products are diluted in a 50/50 mixture of DMSO-H2O) 20 μl of αvβ3 human receptor (cf Pytela et al. Methods Enzymol (1987) 144:475) (dilution in incubation buffer, to be adapted according to the batch of receptor and according to the ligand).
The ligand, the αvβ3 human receptor and the products to be studied are incubated for 3 hours at ambient temperature under gentle agitation.
The wells are again washed six times, then incubated for 2 hours at ambient temperature under gentle agitation, in the presence of 100 μl of 4B12-HRP antibody, anti-receptor coupled to a peroxydase (the 4B12-HRP antibody is diluted in incubation buffer. The dilution is to be adapted according to the batch of receptor).
The wells are then washed six times before measurement of the ligand-receptor bond done by the intermediate of a peroxydase visualizing kit (TMP Microwell Peroxydase Substrate System Kirkegaard: Ref. cat. 50-76-00). This kit contains a flask A of substrate (3,3′,5,5′-tetra-methylbenzidine at 0.4 g/l) and a flask B (H2O2 at 0.02% in Citrate/Citric acid buffer). Extemporaneously, a volume of A is mixed with a volume of B, then the reaction mixture is distributed at a rate of 100 μl/wells. The enzymatic reaction develops in 12′ for Vitronectin/αvβ3, and then its evolution is stopped by the addition of 100 μl of 1M phosphoric acid.
The optical density is measured at 450 nm. […]
coating buffer: 0.05 M carbonate, NaOH pH 9.6 fixation buffer: PBS containing 0.5% of BSA (pH 7.4) washing buffer: PBS containing 0.05% of Tween 20 (pH 7.4)
Expression of the Results: the following curve is drawn: the bonding percentage of human vitronectin as a function of the logarithm of the concentration of each product tested. For each product the IC50 is determined according to the following formula:
BO=Maximum bond in the absence of any product
Bmin=Minimum bond in the presence of the highest concentration of the product.

SMILES	IC50
C[C@]12C[C@H](CCCCCC(=O)O)C3=C4CCC(=NNC5=NCCN5)C=C4CC[C@H]3[C@@H]1CCC2=O (mixture of isomers) [Example 7, 3-[(4,5-Dihydro-1H-imidazol-2-yl)-hydrazono]-17-oxo-estra-4,9-diene-11-beta-hexanoic Acid]	0.025 µM
C[C@]12C[C@H](CCCCC(NC(=O)OCc3ccccc3)C(=O)O)C3=C4CCC(=NNC5=NCCN5)C=C4CC[C@H]3[C@@H]1CCC2=O (mixture of isomers) [Example 2, 3-[(4,5-Dihydro-1H-imidazol-2-yl)hydrazono]-17-oxo-α-[[(phenylmethoxy)carbonyl]amino]-estra-4,9-diene-11-beta-hexanoic Acid]	0.03 µM
C[C@]12C[C@H](CCCCCC(=O)O)C3=C4CC/C(=N/NC(=N)N)C=C4CC[C@H]3[C@@H]1CCC2=O [Example 5b ΔZ, 3-[(Amino-iminomethyl)hydrazono]-17-oxo-estra-4,9-diene-11-beta-hexanoic Acid]	0.375 µM
C[C@]12C[C@H](CCCCC(=O)O)C3=C4CCC(=NNC(=N)N)C=C4CC[C@H]3[C@@H]1CCC2=O (mixture of isomers) [Example 4, 3-[(Amino-iminomethyl)hydrazono]-17-oxoestra-4,9-dien-11-beta-pentanoic Acid]	0.133 µM
C[C@]12C[C@H](CCCCCC(=O)O)C3=C4CC/C(=N\NC(=N)N)C=C4CC[C@H]3[C@@H]1CCC2=O [Example 5a ΔE, 3-[(Amino-iminomethyl)hydrazono]-17-oxo-estra-4,9-diene-11-beta-hexanoic Acid]	0.054 µM
CC12CC(CCCCC(NC(=O)OCc3ccccc3)C(=O)O)C3=C4CCC(=NNC5=NCCN5)C=C4CCC3C1CCC2O (stereo not drawn) [Example 3, 3-[(4,5-Dihydro-1H-imidazol-2-yl)hydrazono]-17-hydroxy-alpha.-[[(phenylmethoxy)carbonyl]amino]-estra-4,9-diene-11-beta-hexanoic Acid]	0.07 µM
C[C@]12C[C@H](CCCCCC(=O)O)C3=C4CCC(=NNC5=NCCCN5)C=C4CC[C@H]3[C@@H]1CCC2=O (mixture of isomers) [Example 6b 60/40, 3-[(1,4,5,6-Tetrahydro-2-pyrimidinyl)-hydrazono]-17-oxo-4,9-diene-11-beta-hexanoic Acid]	0.038 µM
C[C@]12C[C@H](CCCCCC(=O)O)C3=C4CCC(=NNC5=NCCCN5)C=C4CC[C@H]3[C@@H]1CCC2=O (mixture of isomers) [Example 6a 90/10, 3-[(1,4,5,6-Tetrahydro-2-pyrimidinyl)-hydrazono]-17-oxo-4,9-diene-11-beta-hexanoic Acid]	0.02 µM
C[C@]12C[C@H](CCCCCC(=O)O)C3=C4CCC(=NNC(=N)N)C(Cl)=C4CC[C@H]3[C@@H]1CCC2=O [Example 9, 3-[(Aminoiminomethyl)hydrazono]-4-chloro-17-oxo-estra-4,9-diene-11-beta-hexanoic Acid]	1.95 µM
C[C@]12C[C@H](CCCCCC(=O)O)C3=C4CCC(=NNC5=NCCN5)C(Cl)=C4CC[C@H]3[C@@H]1CCC2=O [Example 8, 4-Chloro-3-[(4,5-dihydro-1H-imidazol-2-yl)hydrazono]-17-oxo-estra-4,9-diene-11-beta-hexanoic Acid]	0.017 µM
